Experimental data from ChEMBL document CHEMBL1133425, “Synthesis and dopaminergic activity of heterocyclic analogues of 5,6-dihydroxy-2-aminotetralins” (2000).

Tests used:
Oryctolagus cuniculus [1] = organism: Oryctolagus cuniculus; test: D1-like activity was evaluated as pD2 on a superfused rabbit splenic artery; format: functional
Oryctolagus cuniculus [2] = organism: Oryctolagus cuniculus; test: D2-like activity was evaluated as pD2 on a superfused rabbit ear artery; format: functional

SMILES | pD2 (Oryctolagus cuniculus [1]) | pD2 (Oryctolagus cuniculus [2])
CCCN(CCCCCCN(CCC)C1CCc2nc(O)ccc2C1)CCc1ccc(S(C)(=O)=O)cc1 (centres undefined) | <5 | 
CCCN(CCCCCCNCCc1ccc(S(C)(=O)=O)cc1)[C@H]1CCc2c(ccc(O)c2O)C1 | 8.6 | 10.1
CCCN(CCCCCCNCCc1ccc(S(C)(=O)=O)cc1)C1CCc2nc(N)sc2C1 (centres undefined) | 6.3 | 8.4
CCCN(CCCCCCNCCc1ccc(S(C)(=O)=O)cc1)C1CCc2ncccc2C1 (centres undefined) | <5 | 8.4
CCCN(CCC)C1CCc2c(ccc(O)c2O)C1 (centres undefined) | 6.5 | 9.8
CS(=O)(=O)c1ccc(CCNCCCCCCNC2CCc3[nH]ccc3C2)cc1 (centres undefined) | <5 | <6
CCCN(CCCCCCNCCc1ccc(S(C)(=O)=O)cc1)C1CCc2[nH]ccc2C1 (centres undefined) | <5 | 
CS(=O)(=O)c1ccc(CCNCCCCCCNC2CCc3ncccc3C2)cc1 (centres undefined) | <5 | 6.3
CS(=O)(=O)c1ccc(CCNCCCCCCNCCc2cc[nH]c2)cc1 | <5 | 
CCCN(CCCCCCN(CCC)CCc1cccnc1)CCc1ccc(S(C)(=O)=O)cc1 | 5.5 | <6
CS(=O)(=O)c1ccc(CCNCCCCCCNCCc2cccnc2)cc1 | <5 | 5.5
